Where “and” joins values, the source holds several entries; their conditions need not be identical. Equal values may be shown once. Records with an inconclusive call do not appear.
Test system: BDF1 mice, colon carcinoma 38 sc, T/C %
Assay: NCI In Vivo Anticancer Drug Screen. Data for tumor model Colon Carcinoma 38 (subcutaneous) in B6D2F1 (BDF1) mice
Conditions: endpoint: median tumor weight (est.), schedule: Q07DX002 (ip), higher = larger tumour
Summary of the method: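 Mice with transplanted tumors are treated with compound or vehicle. Survival or tumor size is then measured in both groups. The ratio of treated to control gives the reported figure.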

[1] = dose: 3.0 mg/kg/injection, vehicle: saline
[2] = dose: 6.0 mg/kg/injection, vehicle: saline
[3] = dose: 12.0 mg/kg/injection, vehicle: saline
[4] = dose: 25.0 mg/kg/injection, vehicle: saline with Tween-80
[5] = dose: 12.5 mg/kg/injection, vehicle: water
[6] = dose: 25.0 mg/kg/injection, vehicle: water
[7] = dose: 50.0 mg/kg/injection, vehicle: water
[8] = dose: 12.5 mg/kg/injection, vehicle: saline with Tween-80
[9] = dose: 50.0 mg/kg/injection, vehicle: saline with Tween-80
[10] = dose: 100.0 mg/kg/injection, vehicle: saline with Tween-80
[11] = dose: 200.0 mg/kg/injection, vehicle: saline with Tween-80
[12] = dose: 100.0 mg/kg/injection, vehicle: water
[13] = dose: 200.0 mg/kg/injection, vehicle: water
[14] = dose: 50.0 mg/kg/injection, vehicle: saline
[15] = dose: 100.0 mg/kg/injection, vehicle: saline
[16] = dose: 200.0 mg/kg/injection, vehicle: saline
[17] = dose: 4.0 mg/kg/injection, vehicle: saline
[18] = dose: 8.0 mg/kg/injection, vehicle: saline
[19] = dose: 12.5 mg/kg/injection, vehicle: saline

## CS(=O)(=O)CS(=O)(=O)OCCCl
dose: 1.5 mg/kg/injection, vehicle: saline
  T/C: 86 % of control
[1]
  T/C: 91 % of control
[2]
  T/C: 97 % of control
[3]
  T/C: 155 % of control
[4]
  T/C: 73 % of control

## CC(=O)Nc1ccc(/C=N/NC(N)=S)cc1
dose: 100.0 mg/kg/injection, vehicle: Klucel (hydroxypropylcellulose) (HPC)
  T/C: 117 % of control and 98 % of control
dose: 400.0 mg/kg/injection, vehicle: Klucel (hydroxypropylcellulose) (HPC)
  T/C: 98 % of control
dose: 450.0 mg/kg/injection, vehicle: saline with Tween-80
  T/C: 86 % of control
dose: 900.0 mg/kg/injection, vehicle: saline with Tween-80
  T/C: 57 % of control
dose: 1800.0 mg/kg/injection, vehicle: saline with Tween-80
  T/C: 119 % of control

## O=C(C#Cc1ccccc1)c1ccccc1
dose: 3.12 mg/kg/injection, vehicle: Klucel (hydroxypropylcellulose) (HPC)
  T/C: 73 % of control
dose: 3.12 mg/kg/injection, vehicle: water
  T/C: 106 % of control
dose: 6.25 mg/kg/injection, vehicle: water
  T/C: 77 % of control
dose: 12.5 mg/kg/injection, vehicle: Klucel (hydroxypropylcellulose) (HPC)
  T/C: 83 % of control
[5]
  T/C: 110 % of control
dose: 25.0 mg/kg/injection, vehicle: Klucel (hydroxypropylcellulose) (HPC)
  T/C: 101 % of control
[6]
  T/C: 117 % of control
[7]
  T/C: 54 % of control

## Cc1c2ccccc2c(C)c2c1cc(C(=O)O)c1ccccc12
dose: 62.5 mg/kg/injection, vehicle: other
  T/C: 67 % of control
dose: 125.0 mg/kg/injection, vehicle: other
  T/C: 101 % of control
dose: 250.0 mg/kg/injection, vehicle: other
  T/C: 152 % of control
dose: 500.0 mg/kg/injection, vehicle: other
  T/C: 58 % of control
dose: 1000.0 mg/kg/injection, vehicle: other
  T/C: 87 % of control

## CCCCCCCCCCCCCCCCCC(=O)Nc1ccn(C2OC(CO)C(O)C2O)c(=O)n1 (stereo not given)
[8]
  T/C: 99 % of control
[9]
  T/C: 35 % of control and 59 % of control
[10]
  T/C: 25 % of control
[11]
  T/C: 4 % of control

## Cc1ccc(S(=O)(=O)NC(=S)S)cc1
[8]
  T/C: 108 % of control
[4]
  T/C: 54 % of control
[9]
  T/C: 116 % of control
[10]
  T/C: 100 % of control
[11]
  T/C: 60 % of control

## COc1ccc(OC)c(Cc2cnc3nc(N)nc(N)c3c2C)c1
[5]
  T/C: 62 % of control
[6]
  T/C: 96 % of control
[7]
  T/C: 67 % of control and 82 % of control
[12]
  T/C: 93 % of control and 100 % of control
[13]
  T/C: 32 % of control

## N#C[C@H](OC1OC(COC2OC(CO)C(O)C(O)C2O)C(O)C(O)C1O)c1ccccc1 (stereo not given in full)
[14]
  T/C: 76 % of control
[7]
  T/C: 70 % of control
[15]
  T/C: 103 % of control
[12]
  T/C: 70 % of control
[16]
  T/C: 62 % of control
[13]
  T/C: 85 % of control
dose: 400.0 mg/kg/injection, vehicle: saline
  T/C: 76 % of control
dose: 400.0 mg/kg/injection, vehicle: water
  T/C: 112 % of control
dose: 800.0 mg/kg/injection, vehicle: saline
  T/C: 87 % of control
dose: 800.0 mg/kg/injection, vehicle: water
  T/C: 83 % of control
dose: 1600.0 mg/kg/injection, vehicle: saline
  T/C: 98 % of control
dose: 1600.0 mg/kg/injection, vehicle: water
  T/C: 106 % of control

## O=C1C(NCC(O)CO)=C(N2CC2)C(=O)C(NCC(O)CO)=C1N1CC1 (stereo not given)
dose: 2.0 mg/kg/injection, vehicle: saline
  T/C: 105 % of control
[17]
  T/C: 60 % of control
dose: 4.0 mg/kg/injection, vehicle: suspension in saline
  T/C: 66 % of control
[18]
  T/C: 77 % of control
dose: 8.0 mg/kg/injection, vehicle: suspension in saline
  T/C: 100 % of control
dose: 16.0 mg/kg/injection, vehicle: saline
  T/C: 12 % of control
dose: 16.0 mg/kg/injection, vehicle: suspension in saline
  T/C: 69 % of control

## CC1(O)C=CC(=O)C=C1
[7]
  T/C: 114 % of control

## [Cl][Mn][Cl]
[1]
  T/C: 118 % of control
[17]
  T/C: 97 % of control
[2]
  T/C: 92 % of control
[18]
  T/C: 81 % of control
[3]
  T/C: 119 % of control
dose: 32.0 mg/kg/injection, vehicle: saline
  T/C: 95 % of control and 96 % of control
dose: 48.0 mg/kg/injection, vehicle: saline
  T/C: 119 % of control
dose: 64.0 mg/kg/injection, vehicle: saline
  T/C: 75 % of control
dose: 96.0 mg/kg/injection, vehicle: saline
  T/C: 115 % of control
dose: 128.0 mg/kg/injection, vehicle: saline
  T/C: 78 % of control

## COc1cc2cc3cc4cc(OC)c(OC)cc4c(C)[n+]3cc2cc1OC (tested in a mixture with another compound)
[19]
  T/C: 74 % of control and 94 % of control
dose: 12.5 mg/kg/injection, vehicle: suspension in saline
  T/C: 83 % of control
dose: 25.0 mg/kg/injection, vehicle: suspension in saline
  T/C: 85 % of control
[14]
  T/C: 81 % of control and 100 % of control
dose: 50.0 mg/kg/injection, vehicle: suspension in saline
  T/C: 98 % of control
[15]
  T/C: 82 % of control and 88 % of control
dose: 100.0 mg/kg/injection, vehicle: suspension in saline
  T/C: 116 % of control
[16]
  T/C: 74 % of control
dose: 200.0 mg/kg/injection, vehicle: suspension in saline
  T/C: 50 % of control
dose: 400.0 mg/kg/injection, vehicle: suspension in saline
  T/C: 89 % of control

## O=Cc1ccc([N+](=O)[O-])s1
dose: 6.25 mg/kg/injection, vehicle: saline with Tween-80
  T/C: 124 % of control and 108 % of control
[4]
  T/C: 108 % of control
[9]
  T/C: 57 % of control

## Nc1ccn([C@@H](C=O)O[C@@H](C=O)CO)c(=O)n1
[19]
  T/C: 99 % of control
dose: 25.0 mg/kg/injection, vehicle: saline
  T/C: 71 % of control
[14]
  T/C: 58 % of control
[15]
  T/C: 86 % of control
[16]
  T/C: 73 % of control

## CCc1nc(N)nc(N)c1-c1ccc(Cl)c(N=[N+]=[N-])c1
dose: 25.0 mg/kg/injection, vehicle: distilled water + Tween-80
  T/C: 82 % of control
dose: 50.0 mg/kg/injection, vehicle: distilled water + Tween-80
  T/C: 98 % of control
dose: 100.0 mg/kg/injection, vehicle: distilled water + Tween-80
  T/C: 97 % of control
dose: 200.0 mg/kg/injection, vehicle: distilled water + Tween-80
  T/C: 88 % of control
dose: 400.0 mg/kg/injection, vehicle: distilled water + Tween-80
  T/C: 106 % of control

Reference: PubChem BioAssay AID212 (DTP/NCI, 2004)
